Results published in patent US20120207763A1, “PYRROLOPYRIMIDINE COMPOUNDS AND THEIR USES” (ASTEX THERAPEUTICS LIMITED, priority 2006, published 2012).
Values joined by “and” are separate entries in the source; they are usually repeats but may differ in a detail not shown here. Equal values may be shown once. Read-outs that look alike come from different tables or passages of the source.

Legend:
Type in all cases: biochemical
[1] = molecular target: CDK2/Cyclin-A kinase complex (Homo sapiens, UniProt P24941); assay: CDK2 IMAP fluorescence polarization assay; conditions: Table E; read-out: CDK2cyA IMAP/IC50 [umol l − 1]
Excerpt: In order to test the CDK2 activity of the compounds of the invention, the CDK2 assay is a flourescence polarization assay, where the enzyme is a purified active CDK2/Cyclin-A kinase complex and the substrate is a synthesized peptide derived from Histone H1. This assay utilizes the IMAP technology from Molecular Devices. The active CDK2/Cyclin-A complex phosphorylates the peptide substrate, which is conjugated with the TAMRA tag. The phosphorylated site is then recognized by a metal containing molecule that interacts with the TAMRA tag to induce a high flourescence polarization. The compounds that inhibit the CDK2 kinase activity would inhibit the flourescence output of the assay.

[2] = molecular target: hCDK1/B (Homo sapiens, UniProt P06493); assay: hCDK1/B assay; conditions: Table E; read-out: hCDK1/B/IC50 [umol l − 1]
hCDK1/B, sequence (P06493 whole entry): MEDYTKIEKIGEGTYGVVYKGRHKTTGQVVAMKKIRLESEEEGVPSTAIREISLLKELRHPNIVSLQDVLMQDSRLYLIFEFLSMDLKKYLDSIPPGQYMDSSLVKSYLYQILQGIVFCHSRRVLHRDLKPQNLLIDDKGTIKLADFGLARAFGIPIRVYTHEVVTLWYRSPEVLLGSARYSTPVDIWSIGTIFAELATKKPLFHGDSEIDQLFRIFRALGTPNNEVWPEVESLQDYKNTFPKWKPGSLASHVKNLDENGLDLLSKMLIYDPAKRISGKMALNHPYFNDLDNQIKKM
hCDK1/B, sequence (P14635 whole entry partner): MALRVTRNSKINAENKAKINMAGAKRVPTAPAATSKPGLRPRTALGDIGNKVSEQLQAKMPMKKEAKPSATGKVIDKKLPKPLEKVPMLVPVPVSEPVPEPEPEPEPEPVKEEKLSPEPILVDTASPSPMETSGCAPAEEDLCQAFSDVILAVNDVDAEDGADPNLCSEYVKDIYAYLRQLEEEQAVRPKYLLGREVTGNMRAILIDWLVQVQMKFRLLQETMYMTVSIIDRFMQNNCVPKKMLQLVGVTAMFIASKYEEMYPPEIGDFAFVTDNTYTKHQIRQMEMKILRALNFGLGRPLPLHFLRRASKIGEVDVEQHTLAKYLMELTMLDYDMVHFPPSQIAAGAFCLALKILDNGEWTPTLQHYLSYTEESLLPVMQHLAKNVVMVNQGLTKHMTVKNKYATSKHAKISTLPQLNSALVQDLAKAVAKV

[3] = molecular target: CDK4 (Homo sapiens, UniProt P11802); assay: CDK4 HTRF assay; conditions: Table E; read-out: CDK4 HTRF/IC50 [umol l − 1]
CDK4, sequence (P11802 whole entry): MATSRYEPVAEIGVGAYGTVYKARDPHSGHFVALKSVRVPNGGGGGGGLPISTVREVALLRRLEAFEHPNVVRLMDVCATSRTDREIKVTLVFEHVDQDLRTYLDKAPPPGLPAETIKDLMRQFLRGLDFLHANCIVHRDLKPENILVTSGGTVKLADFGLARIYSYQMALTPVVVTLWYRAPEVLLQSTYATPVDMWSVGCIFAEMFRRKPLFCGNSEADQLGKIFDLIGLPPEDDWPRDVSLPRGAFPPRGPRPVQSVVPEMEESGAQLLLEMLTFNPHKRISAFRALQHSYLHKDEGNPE
CDK4, sequence (P24385 whole entry partner): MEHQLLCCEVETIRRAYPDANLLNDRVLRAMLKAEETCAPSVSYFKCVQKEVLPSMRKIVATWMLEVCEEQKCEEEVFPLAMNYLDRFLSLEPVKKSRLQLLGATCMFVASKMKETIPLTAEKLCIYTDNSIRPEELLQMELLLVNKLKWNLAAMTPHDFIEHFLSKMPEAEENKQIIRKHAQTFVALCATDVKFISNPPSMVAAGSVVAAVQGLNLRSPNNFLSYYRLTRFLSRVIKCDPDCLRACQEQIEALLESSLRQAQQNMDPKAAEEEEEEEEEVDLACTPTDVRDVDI

[4] = molecular target: T1, JAK-3 (Homo sapiens, UniProt P52333); assay: JAK LANCE enzymatic assay (JAK-3)
T1 construct: GST fusion constructs of the kinase domains of both enzymes are used; GST
T1 sequence (P52333 822-1111 limits assumed): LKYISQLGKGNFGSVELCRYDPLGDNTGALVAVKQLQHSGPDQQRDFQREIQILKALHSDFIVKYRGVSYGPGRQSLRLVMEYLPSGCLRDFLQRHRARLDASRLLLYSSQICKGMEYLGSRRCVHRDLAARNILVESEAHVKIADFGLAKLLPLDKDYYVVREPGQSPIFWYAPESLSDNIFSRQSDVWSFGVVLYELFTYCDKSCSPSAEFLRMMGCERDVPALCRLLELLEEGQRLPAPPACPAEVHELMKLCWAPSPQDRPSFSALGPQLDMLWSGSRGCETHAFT
Excerpt: Binding of cytokines and certain growth factors to their respective receptors trigger activation of Janus kinases, which phosphorylate members of the STAT family. Phosphorylated STAT molecules dimerize and migrate to the nucleus where they bind to DNA and initiate transcription of responsive genes. Inhibitors of pathways downstream of cytokine/growth factor receptors have therapeutic potential for several indications. An enzymatic assay for JAK-3 and JAK-2 has been developed to identify T-cell selective inhibitors. GST fusion constructs of the kinase domains of both enzymes are used and a biotinylated, tyrosine containing peptide serves as substrate. Phosphorylation of this peptide by the respective kinase is quantified with an europium-labeled anti-phosphotyrosine antibody (Eu-PT66) as energy donor and a streptavidin-allophycocyanine conjugate (SA-APC) as energy acceptor. The assay has been established in a 384 well format.
In the JAK LANCE™ assay, a biotinylated peptide is incubated together with compounds and ATP in buffer. The phosphorylation reaction starts after addition of JAK kinase. After incubation at RT the reaction is stopped with EDTA and the product detected by addition Streptavidin-Allophycocyanin and Europium-labeled antiphosphotyrosine antibody. The signal is measured using an EnVision Reader. Exc: 320 nm, Em, Donor: 615 nm and Em, Acceptor: 665 nm in time resolved fashion with a delay of […].

[5] = Table B, read-out: Jak-3 Lance/ IC50 [nmol I-1]

SMILES	IC50 [1] [µM]	IC50 [2] [µM]	IC50 [3]	IC50 [4, 5] [µM]	IC50 ([4]; Table A, read-out: Jak-3/ IC50) [µM]
Cc1c(-c2cnco2)n(C2CCCC2)c2nc(Nc3ccc(CN4CCOCC4)cc3)ncc12 [Example 401]	< 1	< 1	< 1 µM	–	–
Cc1cn(-c2c[nH]cn2)c2nc(Nc3ccc(N4CCNCC4)cn3)ncc12 [Example 324]	> 10	> 10	< 1 µM	–	–
Cc1cn(C2CCCC2)c2nc(Nc3ccc(CN4CCN(C(=O)OC(C)(C)C)CC4)cc3)ncc12 [Example 462]	> 15	> 15	–	–	–
Cc1c(-c2cnco2)n(C2CCCC2)c2nc(Nc3ccc(CN4CCNCC4)cn3)ncc12 [Example 403]	< 10	< 10	< 1 µM	–	–
Cc1cn(C2CCCC2)c2nc(Nc3ccc4[nH]ncc4c3)ncc12 [Example 281]	< 10	< 10	–	–	–
CC(=O)c1c(C)c2cnc(Nc3ccc(N4CCNCC4)cn3)nc2n1C1CCCCCC1 [Example 389]	< 10	> 10	< 1 µM	–	–
CN(C)C(=O)c1cc2cnc(Nc3ccc(CN4CCOCC4)cc3)nc2n1C1CCCC1 [Example 340]	< 10	< 10	< 1 µM	–	–
CCC(CC)n1c(C(=O)Nc2ccc(C(F)(F)F)cc2)cc2cnc(Nc3ccc(N4CCNCC4)cc3)nc21 [Example 359]	< 10	< 10	< 1 µM	–	–
Cc1cn(C2CCCC2)c2nc(Nc3ccc(CN4CCOCC4)cc3)ncc12 [Example 313]	< 10	< 10	< 1 µM	–	–
CCC(CC)n1c(C(=O)NC)cc2cnc(Nc3ccc(N4CCNCC4)cc3)nc21 [Example 346]	< 10	< 10	< 1 µM	–	–
Cc1c(C#N)n(C2CCCC2)c2nc(Nc3ccc(N4CCNCC4)cn3)ncc12 [Example 393]	< 10	< 10	< 1 µM	–	–
Cc1c(C(=O)N(C)C)n(C2CCCC2)c2nc(Nc3ccc(N4CCNCC4)cn3)ncc12 [Example 392]	< 10	> 10	–	–	–
CN(C)C(=O)c1cc2cnc(Nc3ccc(C4CCNCC4)cc3)nc2n1C1CCCC1 [Example 341]	> 10	< 10	< 1 µM	–	–
Cc1cn(C2CCCC2)c2nc(Nc3ccc(CN4CCNCC4)cc3)ncc12 [Example 314]	< 10	< 10	< 1 µM	–	–
CCC(CC)n1c(CNc2cc(C)[nH]n2)cc2cnc(Nc3ccc(N4CCN(C(C)=O)CC4)cc3)nc21 [Example 372]	< 1	< 10	–	–	–
Cc1c(-c2cnco2)n(C2CCCCCC2)c2nc(Nc3ccc(N4CCNCC4)cn3)ncc12 [Example 400]	< 1	< 1	< 1 µM	–	–
CCC(CC)n1c(C(=O)Nc2ccc(C)cc2)cc2cnc(Nc3ccc(N4CCNCC4)cc3)nc21 [Example 348]	> 15	> 15	< 1 µM	–	–
Cc1noc(-c2c(C)c3cnc(Nc4ccc(N5CCNCC5)cn4)nc3n2C2CCCC2)n1 [Example 407]	< 10	< 10	< 1 µM	–	–
Cc1cn(C2CCCC2)c2nc(Nc3ccc(N4CCOCC4)cn3)ncc12 [Example 302]	> 10	> 10	–	–	–

SMILES	IC50 [1] [µM]	IC50 [2] [µM]	IC50 [3]	IC50 [4, 5] [µM]	IC50 ([4]; Table A, read-out: Jak-3/ IC50) [µM]
Cc1cn(C2CCCC2)c2nc(Nc3ccc(N4CCNCC4)cc3)ncc12 [Example 266]	–	< 10	< 1 µM	–	–
OC1CCC(n2ccc3cnc(Nc4ccc(N5CCNCC5)cc4)nc32)C1 (stereo not drawn) [Example 247]	< 1	< 1	< 1 µM	–	–
CCC(CC)n1c(C(=O)Nc2cccnc2)cc2cnc(Nc3ccc(N4CCNCC4)cc3)nc21 [Example 352]	> 10	< 10	< 1 µM	–	–
CCC(CC)n1c(C(=O)Nc2ccc(CN3CCN(C)CC3)cc2)cc2cnc(Nc3ccc(N4CCNCC4)cc3)nc21 [Example 354]	> 15	> 15	–	–	–
Cc1cn(C2CCCC2)c2nc(Nc3ccncn3)ncc12 [Example 304]	> 10	> 10	> 10 µM	–	–
Cc1cn(C2CCCC2)c2nc(Nc3ccc(N4CCNCC4)cn3)ncc12 [Example 267]	–	> 10	–	–	–
CCC(CC)n1c(CNc2ccon2)cc2cnc(Nc3ccc(N4CCN(C(C)=O)CC4)cc3)nc21 [Example 371]	< 10	< 1	–	–	–
Cc1cn(C2CCCC2)c2nc(NN3CCN(C)CC3)ncc12 [Example 306]	> 10	> 10	> 10 µM	–	–
CCC(CC)n1c(C(=O)N(C)C)cc2cnc(Nc3ccc(CN4CCN(C(=O)OC(C)(C)C)CC4)cc3)nc21 [Example 465]	< 10	< 10	< 1 µM	–	–
CN(C)C(=O)c1cc2cnc(Nc3ccc(CN4CCNCC4)cc3)nc2n1C1CCCC1 [Example 339]	> 10	> 10	< 1 µM	–	–
Cc1cn(C2CCCC2)c2nc(Nc3ccccc3)ncc12 [Example 277]	> 10	> 10	> 10 µM	–	–
Cc1cn(C2CCCC2)c2nc(Nc3ccc(N(C)C)cc3)ncc12 [Example 311]	> 10	> 10	–	–	–
CN(C)C(=O)c1cc2cnc(Nc3ccc(N4CCNCC4)cc3)nc2n1C1CCCC1 [Example 338]	< 10	< 10	< 1 µM	–	–
c1cc(N2CCNCC2)ccc1Nc1ncc2ccn(C3CCCCCC3)c2n1 [Example 232]	–	> 10	> 10 µM and < 1 µM	–	–
CCC(CC)n1c(CNc2cccnc2)cc2cnc(Nc3ccc(N4CCN(C(C)=O)CC4)cc3)nc21 [Example 369]	< 10	< 10	–	–	–
CCC(CC)n1c(CNCc2ccco2)cc2cnc(Nc3ccc(N4CCN(C(C)=O)CC4)cc3)nc21 [Example 449]	< 10	< 10	–	–	–
Cc1cn(C2CCCC2)c2nc(Nc3ccc(N4CCCCC4)cc3)ncc12 [Example 278]	> 10	> 10	–	–	–
Cc1cn(C2CCCC2)c2nc(Nc3ccc(C(=O)N4CCOCC4)cc3)ncc12 [Example 292]	< 10	< 10	–	–	–
CN(C)C(=O)c1cc2cnc(NCc3ccc(N4CCNCC4)cc3)nc2n1C1CCCC1 [Example 467]	> 15	> 15	–	–	–

SMILES	IC50 [1] [µM]	IC50 [2] [µM]	IC50 [3]	IC50 [4, 5] [µM]	IC50 ([4]; Table A, read-out: Jak-3/ IC50) [µM]
CCC(CC)N1C(=O)C(C)(C)c2cnc(Nc3ccc(N4CCNCC4)cc3)nc21 [drawing 112]	–	–	–	≥ 0.1	–
CCC(CC)N1C(=O)Cc2cnc(Nc3cc(C(=O)N4CCOCC4)ccc3OC)nc21	–	–	–	–	≥ 0.1
CCC(CC)n1c(C(=O)Nc2ccc(C(C)(C)C)cc2)cc2cnc(Nc3ccc(N4CCNCC4)cc3)nc21 [Example 349]	> 15	> 15	–	–	–
Cc1cn(C2CCCC2)c2nc(Nc3ccc(-n4ccnc4)cc3)ncc12 [Example 312]	< 10	< 10	–	–	–
CN1CCN(c2ccc(Nc3ncc4c(n3)N(C3CCCCC3)C(=O)C4)cc2)CC1	–	–	–	–	≤ 0.1
CCC(CC)N1C(=O)Cc2cnc(Nc3ccc(N4CCN(C)CC4)c(F)c3)nc21	–	–	–	–	≤ 0.1
CC(=O)N1CCN(c2ccc(Nc3ncc(Br)c(Nc4ccccn4)n3)cc2)CC1	–	–	–	–	≤ 0.1
Cc1cn(C2CCCCC2)c2nc(Nc3ccc(N4CCNCC4)cn3)ncc12 [drawing 127]	–	–	–	≥ 0.1	–
CCC(CC)N1C(=O)Cc2cnc(Nc3ccc(NS(=O)(=O)c4ccc(C)cc4)cc3)nc21	–	–	–	–	≥ 0.1
Cc1cn(C2CC2)c2nc(Nc3ccc(N4CCNCC4)cn3)ncc12 [drawing 123]	–	–	–	≥ 0.1	–
Cc1cn(C2CCCC2)c2nc(Nc3ccc(CO)cc3)ncc12 [Example 466]	< 10	< 10	–	–	–
CCC(c1ccccc1)N1C(=O)Cc2cnc(Nc3cccc(OCCN4CCCC4)c3)nc21 (stereo not drawn)	–	–	–	–	≥ 0.1
CN1CCN(c2ccc(Nc3ncc4c(n3)N(C3CC3)C(=O)C4)cc2)CC1	–	–	–	–	≥ 0.1
CCC(CC)n1c(CO)cc2cnc(Nc3ccc(N4CCN(C(C)=O)CC4)cc3)nc21 [drawing 119]	–	–	–	≤ 0.1	–
CC(=O)N1CCN(c2ccc(Nc3ncc4c(C)cn(C5CCCCC5)c4n3)cc2)CC1 [drawing 120]	–	–	–	≥ 0.1	–
CCC(CC)N1C(=O)Cc2cnc(Nc3ccc(N4CCN(C(C)=O)CC4)cc3)nc21	–	–	–	–	≤ 0.1
CCC(CC)n1ccc2cnc(Nc3ccc(N4CCN(C)CC4)cn3)nc21 [drawing 82]	–	–	–	–	≥ 0.1
CCC(CC)n1c(CNC2CCCC2)cc2cnc(Nc3ccc(N4CCN(C(C)=O)CC4)cc3)nc21 [Example 370]	< 10	< 10	–	–	–
CCC(CC)N1C(=O)Cc2cnc(Nc3cccc(OCCN4CCCC4)c3)nc21	–	–	–	–	≤ 0.1
